± gives the standard deviation of the averaged measurements.
Assays:
Assay in all cases: level (log10 ratio to DMSO vehicle control); higher = higher biomarker level / cell amount than vehicle control
[1] = compound: C=CC(=O)OCC(F)(F)C(F)(F)C(F)(F)C(F)(F)C(F)(F)C(F)(F)C(F)(F)C(F)F [1H,1H,9H-Perfluorononyl acrylate]; conditions: in DMSO
Protocol: (§1)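 BioMAP Diversity Plus panel of 12 human primary cell co-culture systems (3C, 4H, LPS, SAg, BT, BF4T, BE3C, CASM3C, HDF3CGF, KF3CT, MyoF, Mphg). Compounds were added 1 h before stimulation and left for 24 h (MyoF 48 h; BT 72 h for soluble read-outs or 6 d for IgG). Biomarkers were read by ELISA, cytotoxicity by SRB, PBMC viability and proliferation by Alamar Blue. Each well value was divided by the mean of 8 DMSO control wells on the same plate and log10 transformed; duplicate blinded samples were tested at 4 concentrations.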

[2] = compound: O=C(O)C(F)(F)C(F)(F)C(=O)O [Tetrafluorosuccinic acid]; conditions: in DMSO
Protocol: as §1

[3] = compound: O=C(O)C(F)(F)C(F)(F)C(F)(F)C(F)(F)C(F)(F)C(F)(F)C(F)(F)F [Ammonium perfluorooctanoate]; conditions: in DMSO
Protocol: as §1

[4] = compound: O=S(=O)(O)CCC(F)(F)C(F)(F)C(F)(F)C(F)(F)F [4:2 Fluorotelomer sulfonic acid]; conditions: in DMSO
Protocol: as §1

[5] = compound: OC(C(F)(F)F)(C(F)(F)F)C(O)(C(F)(F)F)C(F)(F)F [Perfluoropinacol]; conditions: in DMSO
Protocol: as §1

[6] = compound: OCC(F)(F)C(F)(F)C(F)(F)C(F)(F)C(F)(F)C(F)(F)C(F)(F)C(F)(F)CO [1H,1H,10H,10H-Perfluorodecane-1,10-diol]; conditions: in DMSO
Protocol: as §1

[7] = compound: OCCC(F)(F)C(F)(F)C(F)(F)C(F)(F)C(F)(F)C(F)(F)C(F)(F)C(F)(F)F [8:2 Fluorotelomer alcohol]; conditions: 6700 nM; in DMSO
Protocol: as §1

Test System	level (log10) ([1]; 6700 nM)	level (log10) ([1]; 20000 nM)	level (log10) ([1]; 60000 nM)	level (log10) ([2]; 6700 nM)	level (log10) ([2]; 20000 nM)	level (log10) ([2]; 60000 nM)	level (log10) ([3]; 6700 nM)	level (log10) ([3]; 20000 nM)	level (log10) ([3]; 60000 nM)	level (log10) ([4]; 6700 nM)	level (log10) ([4]; 20000 nM)	level (log10) ([4]; 60000 nM)	level (log10) ([5]; 6700 nM)	level (log10) ([5]; 20000 nM)	level (log10) ([6]; 6700 nM)	level (log10) ([6]; 20000 nM)	level (log10) ([6]; 60000 nM)	level (log10) [7]
BF4T:SRB	-0.0045 ± 0.005	-0.001 ± 0.016	0.0065 ± 0.021	-0.0035 ± 0.0021	-0.005 ± 0.0028	-0.0025 ± 0.00071	-0.0085 ± 0.005	-0.002 ± 0.0042	0.0005 ± 0.016	-0.012 ± 0.0042	-0.0085 ± 0.0064	-0.0075 ± 0.0064	-0.0135 ± 0.0021	-0.031 ± 0.0014	-0.005 ± 0.0028	-0.0315 ± 0.0035	-0.097	-0.0095 ± 0.0035
3C:HLA-DR	-0.002 ± 0.0085	0.0155 ± 0.0021	-0.0055 ± 0.005	0.0005 ± 0.025	-0.0075 ± 0.0021	-0.0045 ± 0.032	-0.005 ± 0.0042	0 ± 0.0014	0.004 ± 0.016	-0.019 ± 0.0028	-0.0095 ± 0.0078	-0.005 ± 0.028	-0.0405 ± 0.0035	-0.132 ± 0.028	-0.039 ± 0.02	-0.031 ± 0.021	-0.131	-0.0245 ± 0.018
LPS:CD141/Thrombomodulin	-0.028 ± 0.0042	-0.0695 ± 0.035	-0.108 ± 0.021	0.019 ± 0.1	0.043 ± 0.057	0.04 ± 0.047	0.0135 ± 0.025	0.0105 ± 0.013	-0.004 ± 0.016	0.0215 ± 0.039	0.0345 ± 0.044	0.0755 ± 0.032	-0.106 ± 0.028	-0.118 ± 0.005	-0.02 ± 0.03	0.007 ± 0.044	-0.047	-0.0605 ± 0.14
BT:Secreted IgG	-0.011 ± 0.027	-0.0185 ± 0.039	-0.412 ± 0.43	-0.0035 ± 0.033	0.0055 ± 0.011	0.0155 ± 0.0035	0.032 ± 0.017	0.0155 ± 0.037	-0.019 ± 0.033	0.006 ± 0.052	0.021 ± 0.061	0.0055 ± 0.054	-0.322 ± 0.02	-1.36	-0.0135 ± 0.005	-0.0415 ± 0.011	-0.82	-0.0885 ± 0.088
LPS:CXCL8/IL-8	-0.001 ± 0.047	0.0095 ± 0.023	-0.023 ± 0.028	-0.0065 ± 0.00071	-0.003 ± 0.016	0.009 ± 0.02	0.017 ± 0.0042	0.038 ± 0.013	0.047 ± 0.027	-0.0015 ± 0.097	0.027 ± 0.054	0.111 ± 0.018	-0.003 ± 0.0028	-0.0315 ± 0.0021	-0.0065 ± 0.023	0.006 ± 0.0042	0.051	-0.0375 ± 0.029
SAg:SRB	-0.0035 ± 0.0035	-0.0055 ± 0.0021	-0.007 ± 0.021	-0.016 ± 0.023	-0.015 ± 0.011	-0.0225 ± 0.015	-0.013 ± 0.0042	-0.012 ± 0.0057	-0.034 ± 0.0042	-0.0105 ± 0.005	-0.0085 ± 0.011	-0.009 ± 0.011	-0.0285 ± 0.0078	-0.123 ± 0.0021	0.001 ± 0.018	-0.0145 ± 0.015	-0.067	-0.0185 ± 0.00071
BE3C:CXCL10/IP-10	-0.01 ± 0.016	0 ± 0.0014	-0.005 ± 0.0099	-0.007 ± 0.0028	-0.009 ± 0.0057	-0.0125 ± 0.0035	0.0065 ± 0.015	-0.0135 ± 0.00071	-0.163 ± 0.061	-0.0055 ± 0.00071	-0.006 ± 0.0085	-0.0035 ± 0.011	-0.0315 ± 0.0035	-0.118 ± 0.0071	-0.0205 ± 0.013	-0.19 ± 0.088	-0.94	-0.0515 ± 0.057
BF4T:IL-1alpha	0.007 ± 0.0071	0.017 ± 0.014	0.005 ± 0.013	0.023 ± 0.02	0.0145 ± 0.025	0.0335 ± 0.016	-0.02 ± 0.014	-0.0235 ± 0.0035	-0.0365 ± 0.015	-0.0025 ± 0.015	-0.013 ± 0.0028	0.0135 ± 0.029	0.0025 ± 0.012	-0.025 ± 0.0057	0.0005 ± 0.0021	-0.025 ± 0.023	-0.035	0.005
4H:SRB	-0.008 ± 0.0042	-0.008 ± 0.0014	-0.0235 ± 0.0021	-0.0005 ± 0.023	0.001 ± 0.0085	-0.0185 ± 0.011	-0.004 ± 0.011	-0.0115 ± 0.005	-0.0245 ± 0.0078	-0.0035 ± 0.00071	-0.0055 ± 0.005	-0.0035 ± 0.0092	-0.0345 ± 0.015	-0.13 ± 0.0078	-0.0085 ± 0.011	-0.026 ± 0.014	-0.153	-0.014 ± 0.0042
BF4T:PAI-I	0.007 ± 0.0057	0.003 ± 0.0085	0.0005 ± 0.012	-0.0075 ± 0.012	-0.0025 ± 0.018	0.0035 ± 0.00071	0.011 ± 0.0085	0.0055 ± 0.0021	0.0185 ± 0.016	-0.0055 ± 0.005	-0.007 ± 0.0071	-0.0035 ± 0.015	-0.0315 ± 0.0035	-0.0845 ± 0.0064	-0.021 ± 0.021	-0.111 ± 0.0021	-0.156	-0.0135 ± 0.0035
LPS:CD142/Tissue Factor	0.019 ± 0.025	0.0415 ± 0.026	-0.015 ± 0.013	-0.001 ± 0.047	-0.0155 ± 0.079	0.014 ± 0.037	0.016 ± 0.03	0.0045 ± 0.016	0.0105 ± 0.015	-0.051 ± 0.014	-0.0105 ± 0.016	-0.0015 ± 0.016	-0.0795 ± 0.0035	-0.038 ± 0.02	0 ± 0.038	0.0125 ± 0.069	-0.035	-0.0205 ± 0.1
3C:SRB	0.0015 ± 0.0078	0.016 ± 0.0042	-0.014 ± 0.023	-0.0065 ± 0.011	-0.0135 ± 0.0078	-0.021 ± 0.017	-0.0015 ± 0.012	-0.014 ± 0.0042	-0.05 ± 0.0099	-0.0135 ± 0.011	-0.0145 ± 0.0078	-0.0255 ± 0.025	-0.0665 ± 0.013	-0.188 ± 0.0028	0.01 ± 0.034	-0.021 ± 0.033	-0.106	-0.014 ± 0.0099
BT:B cell Proliferation	-0.034 ± 0.0042	-0.0415 ± 0.0035	-0.253 ± 0.15	-0.0055 ± 0.035	0.0075 ± 0.019	0.0285 ± 0.00071	0.0065 ± 0.047	0.0165 ± 0.012	0.0515 ± 0.026	0.0295 ± 0.047	0.042 ± 0.034	0.0225 ± 0.0078	-0.0065 ± 0.0064	-0.085 ± 0.034	0.0155 ± 0.00071	0.0195 ± 0.0078	-0.316	0.0245 ± 0.0064
LPS:CD69	-0.0345 ± 0.011	-0.062 ± 0.011	-0.102 ± 0.023	-0.0265 ± 0.0035	-0.0405 ± 0.0092	-0.029 ± 0.025	-0.0165 ± 0.012	-0.045 ± 0.0085	-0.142 ± 0.031	-0.0435 ± 0.052	-0.0565 ± 0.029	-0.058 ± 0.028	-0.105 ± 0.063	-0.192 ± 0.064	-0.0215 ± 0.073	-0.039 ± 0.045	-0.111	-0.063 ± 0.11
BE3C:CD87/uPAR	0.0055 ± 0.023	0.0395 ± 0.012	0.0365 ± 0.016	0.0095 ± 0.021	-0.0045 ± 0.00071	0.012 ± 0.014	0.0105 ± 0.022	0.0315 ± 0.0035	0.0125 ± 0.023	0.002 ± 0.02	-0.004 ± 0.021	-0.007 ± 0.0071	-0.0675 ± 0.019	-0.231 ± 0.016	-0.013 ± 0.011	-0.042 ± 0.024	-0.337	-0.023 ± 0.041
BF4T:CD54/ICAM-1	-0.0365 ± 0.033	-0.0385 ± 0.049	-0.0455 ± 0.019	-0.0145 ± 0.013	-0.018 ± 0.0042	-0.0295 ± 0.0021	-0.009 ± 0.02	-0.016 ± 0.0014	-0.0415 ± 0.023	-0.0085 ± 0.011	-0.0125 ± 0.0092	0.006 ± 0.038	-0.0015 ± 0.011	-0.018 ± 0.0028	-0.031 ± 0.02	-0.091 ± 0.0071	-0.138	-0.0365 ± 0.015
